From the supplement of paper PMC13380429

How the values were obtained:
[1] = test system: U2OS; assay: drug sensitivity score (DSS) for viability; higher = more toxic; extreme values may be limits of the assay; details: 72 h
[2] = test system: Calu-3; assay: as above; details: 72 h
[3] = test system: Caco-2; assay: as above; details: 72 h
[4] = test system: HepG2; assay: as above; details: 72 h
[5] = test system: Vero E6; assay: as above; details: 72 h
[6] = test system: A549-ACE2 infected with SARS-CoV-2; assay: SARS-CoV-2 infection rate relative to DMSO; higher = more infection; details: 24 h
[7] = test system: A549-ACE2 infected with SARS-CoV-2; assay: cell count relative to DMSO; higher = less toxic; details: 24 h
[8] = test system: A549-ACE2 infected with SARS-CoV-2; assay: morphology score (similarity to uninfected cells); higher = more like uninfected cells; details: 24 h
[9] = test system: Calu-3; assay: relative viability EC50 (midpoint between 100% and the lowest measured viability); higher = less toxic; details: 72 h
[10] = test system: HepG2; assay: as above; details: 72 h
[11] = test system: A549-ACE2; assay: phospholipidosis EC50; higher = less potent phospholipidosis inducer
[12] = test system: A549-ACE2; assay: drug-induced phospholipidosis relative to tamoxifen; higher = more phospholipidosis
[13] = test system: U2OS; assay: cell viability relative to DMSO; higher = less toxic; details: 72 h
[14] = test system: Calu-3; assay: as above; details: 72 h
[15] = test system: Caco-2; assay: as above; details: 72 h
[16] = test system: HepG2; assay: as above; details: 72 h
[17] = test system: Vero E6; assay: as above; details: 72 h
[18] = test system: U2OS; assay: relative viability EC50 (midpoint between 100% and the lowest measured viability); higher = less toxic; details: 72 h
[19] = test system: Caco-2; assay: as above; details: 72 h
[20] = test system: Vero E6; assay: as above; details: 72 h

CCCCN1[C@@H]2CC[C@H]1C[C@@H](OC(c1ccc(F)cc1)c1ccc(F)cc1)C2 [JHW-007]
Details | drug sensitivity score | relative viability EC50 [µM]
[1] | 2.4 | –
[2] | 4.5 | –
[3] | 4.8 | –
[4] | 3.2 | –
[5] | 1.9 | –
[9] | – | 2.8
[10] | – | 3.44

Details | SARS-CoV-2 infection rate [%] | cell count [%] | cell viability [%] | morphology score | phospholipidosis EC50 [µM]
[6], 0.1 µM | 103 | – | – | – | –
[6], 0.3 µM | 85 | – | – | – | –
[6], 1 µM | 58 | – | – | – | –
[6], 3 µM | 20 | – | – | – | –
[7], 0.1 µM | – | 102 | – | – | –
[7], 0.3 µM | – | 106 | – | – | –
[7], 1 µM | – | 114 | – | – | –
[7], 3 µM | – | 116 | – | – | –
[8], 0.1 µM | – | – | – | 0.03 | –
[8], 0.3 µM | – | – | – | 0.4 | –
[8], 1 µM | – | – | – | 0.72 | –
[8], 3 µM | – | – | – | 0.93 | –
[11], 24 h | – | – | – | – | 1.59
[11], 48 h | – | – | – | – | 3.06
[11], 72 h | – | – | – | – | 3.56
[13], 1 nM | – | – | 102 | – | –
[13], 10 nM | – | – | 97.9 | – | –
[13], 100 nM | – | – | 99.9 | – | –
[13], 1000 nM | – | – | 91.9 | – | –
[13], 10000 nM | – | – | 70.6 | – | –
[14], 1 nM | – | – | 96.8 | – | –
[14], 10 nM | – | – | 96.8 | – | –
[14], 100 nM | – | – | 98.4 | – | –
[14], 1000 nM | – | – | 96.6 | – | –
[14], 10000 nM | – | – | 28 | – | –
[15], 1 nM | – | – | 98.9 | – | –
[15], 10 nM | – | – | 98.3 | – | –
[15], 100 nM | – | – | 102 | – | –
[15], 1000 nM | – | – | 76 | – | –
[15], 10000 nM | – | – | 61.2 | – | –
[16], 1 nM | – | – | 96.6 | – | –
[16], 10 nM | – | – | 95.1 | – | –
[16], 100 nM | – | – | 96 | – | –
[16], 1000 nM | – | – | 103 | – | –
[16], 10000 nM | – | – | 36.1 | – | –
[17], 1 nM | – | – | 102 | – | –
[17], 10 nM | – | – | 104 | – | –
[17], 100 nM | – | – | 100 | – | –
[17], 1000 nM | – | – | 99.3 | – | –
[17], 10000 nM | – | – | 61.8 | – | –

drug-induced phospholipidosis [%], [12]
Details | 0.3 µM | 0.833333 µM | 3.33333 µM | 6.66667 µM | 10 µM
24 h | 6 | 18.5 | 80.2 | 92.2 | 90
48 h | 6.06 | 12.4 | 63.9 | 99 | 103
72 h | 9.39 | 14.6 | 61.5 | 99.8 | 110

CNC(=O)N(C)N=O [nitrosodimethylurea]
Details | drug sensitivity score | relative viability EC50 [µM]
[1] | 0 | –
[2] | 0 | –
[3] | 0 | –
[4] | 0 | –
[5] | 0 | –
[9] | – | > 10
[10] | – | > 10
[18] | – | > 10
[19] | – | > 10
[20] | – | > 10

cell viability [%]
Details | [13] | [14] | [15] | [16] | [17]
1 nM | 99.8 | 111 | 85.7 | 88.6 | 93.6
10 nM | 95.7 | 103 | 106 | 100 | 92.4
100 nM | 95.1 | 100 | 94.7 | 103 | 95.4
1000 nM | 98 | 91.6 | 86.9 | 100 | 86.3
10000 nM | 108 | 109 | 116 | 97.7 | 97.9

CC(C)(C)C(=O)/C(=N/c1ccc(Cl)cc1)NNc1ccc(Cl)cc1
Details | drug sensitivity score | relative viability EC50 [µM]
[1] | 0 | –
[2] | 0 | –
[3] | 0 | –
[4] | 0 | –
[5] | 0 | –
[9] | – | > 10
[10] | – | > 10
[18] | – | > 10
[19] | – | > 10
[20] | – | > 10

cell viability [%]
Details | [13] | [14] | [15] | [16] | [17]
1 nM | 96.7 | 97.8 | 82.3 | 105 | 97.5
10 nM | 107 | 107 | 91.6 | 95 | 99.3
100 nM | 102 | 98.8 | 91.4 | 95.5 | 102
1000 nM | 103 | 98.6 | 96.6 | 95.3 | 97.2
10000 nM | 94 | 102 | 83.9 | 97.6 | 107
